Measured values as given in EP0583821A1, “Atriopeptins, guanylate cyclase activators, and phosphodiesterase inhibitors as treatment for glaucoma, hydrocephalus and cerebral edema (cranial fluid volume dysfunction)” (THE GENERAL HOSPITAL CORPORATION, priority 1987, dated 1988).

How the values were obtained:
guanylate cyclase [1] = biological target: T1, guanylate cyclase (Oryctolagus cuniculus, UniProt G1TXB5); experiment: rANP activation of membrane-bound guanylate cyclase in purified cerebral microvessels; format: biochemical; parameters: tissues were homogenized (10 mg wet weight per milliliter); from tissue; host or cells: rabbit cerebral microvessels, choroid plexus, kidney, ciliary process, pia-arachnoid, cerebellum; 100,000 g P1 pellet; conditions: purified rabbit cerebral microvessels, Fig. 1a
T1 sequence (G1TXB5 28-1056): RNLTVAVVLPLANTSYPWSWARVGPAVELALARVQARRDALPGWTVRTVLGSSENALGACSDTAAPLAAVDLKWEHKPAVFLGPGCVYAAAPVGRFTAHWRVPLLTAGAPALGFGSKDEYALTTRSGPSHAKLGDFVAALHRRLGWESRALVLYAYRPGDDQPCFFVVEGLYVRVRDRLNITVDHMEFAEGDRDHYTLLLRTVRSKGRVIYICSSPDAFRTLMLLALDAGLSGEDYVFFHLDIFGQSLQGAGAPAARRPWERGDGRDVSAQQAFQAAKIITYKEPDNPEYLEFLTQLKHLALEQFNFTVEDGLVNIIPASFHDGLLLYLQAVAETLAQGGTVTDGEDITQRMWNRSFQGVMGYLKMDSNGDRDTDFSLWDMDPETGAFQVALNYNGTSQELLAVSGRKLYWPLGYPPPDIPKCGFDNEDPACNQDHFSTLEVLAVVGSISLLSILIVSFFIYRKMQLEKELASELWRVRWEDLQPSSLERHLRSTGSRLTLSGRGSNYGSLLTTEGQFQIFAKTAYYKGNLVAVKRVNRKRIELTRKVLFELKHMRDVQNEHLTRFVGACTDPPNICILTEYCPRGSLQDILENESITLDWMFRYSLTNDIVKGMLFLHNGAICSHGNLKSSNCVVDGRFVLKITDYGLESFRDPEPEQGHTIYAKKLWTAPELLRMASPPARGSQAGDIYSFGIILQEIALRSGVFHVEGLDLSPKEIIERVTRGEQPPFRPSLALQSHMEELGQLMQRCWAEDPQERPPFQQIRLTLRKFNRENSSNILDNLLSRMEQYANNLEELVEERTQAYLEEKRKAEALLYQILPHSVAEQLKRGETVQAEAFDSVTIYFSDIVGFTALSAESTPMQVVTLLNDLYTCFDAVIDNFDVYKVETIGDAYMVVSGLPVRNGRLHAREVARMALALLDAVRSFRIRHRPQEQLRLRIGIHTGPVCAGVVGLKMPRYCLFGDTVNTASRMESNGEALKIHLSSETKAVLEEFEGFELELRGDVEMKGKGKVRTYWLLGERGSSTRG
Protocol: (§1) The effect of rANP on membrane-bound guanylate cyclase and adenylate cyclase activity in various brain-barrier tissues and tissue fractions from rabbit was compared with its activity in cerebrum and cerebellum. Guanylate cyclase was measured as the rate of cyclic GMP formation by modifications of the technique of Waldman et al., supra, incorporated herein by reference. Briefly, tissues were homogenized (10 mg wet weight per milliliter) in 50 mM tris-HCl, pH 8.0, 1 mM EDTA, 1 mM dithiothreitol, and 250 mM sucrose and centrifuged at 100,000g to obtain a P1 pellet. Reaction tubes contained (in 0.3 ml), 50 mM tris, pH 7.6, 6 mM MnCl₂, 0.5 mM 3-isobutyl, 1-methylxanthine (IBMX), 10 mM theophylline, 3 mM GTP, hormone (in 0.03 ml containing 2.5 mM ascorbic acid and 0.1% bovine serum albumin), and 0.06 ml of P1 fraction (40 to 60 ug of protein). The reaction (4 minutes at 30°C) was started by addition of GTP and terminated by addition of 0.3 ml of 150 mM sodium acetate (pH 4.0) and boiling for 3 minutes. Cyclic GMP formed was subsequently measured by radioimmunoassay as described in example 6, infra. Under these conditions, guanylate cyclase activity was linear with time and tissue concentration. Adenylate cyclase activity in P1 fractions was measured according to the method described by Nathanson, et al., Science; 204:843 (1979); Mol. Pharmacol. 18:199 (1980), see Figure 1C . […] Neurosci. […]

guanylate cyclase [2] = experiment: Guanylate cyclase in membrane fractions of cerebral cortex; format: biochemical; conditions: rabbit or pig cerebral cortex membrane fractions
Protocol: as §1

rabbits = experiment: Peripheral blood pressure after intravenous injection; format: in vivo, rabbit; conditions: intravenous injection of similar doses
guanylate cyclase [3] = experiment: Ciliary process guanylate cyclase activity (Tables 2 and 3); format: biochemical
adenylate cyclase = experiment: Adenylate cyclase activity in P1 fractions of whole choroid; format: biochemical, rabbit; conditions: rANP at high concentrations
Protocol: as §1

guanylate cyclase [4] = biological target: T1, guanylate cyclase; experiment: Guanylate cyclase in membranes of ventral superior sagittal dural sinus (arachnoid villi); format: biochemical, pig or rabbit; conditions: small stimulation only at high concentrations; 4 min
Protocol: as §1

## Ser-Leu-Arg-Arg-atriopeptin III (APIII) [rANP 1-28]
Guanylate cyclase [1]
  maximum velocity of enzyme activity (Vmax): 215 % of control
Guanylate cyclase [2]
  stimulation of guanylate cyclase activity: no stimulation
rabbits
  peripheral blood pressure: no change
Guanylate cyclase [3]; Table 2, 10⁻⁶M
  CILIARY PROCESS GUANYLATE CYCLASE ACTIVITY (Percent Increase): 60 ± 27 Percent Increase
Guanylate cyclase [3]; Table 3, concentration not given
  CILIARY PROCESS GUANYLATE CYCLASE ACTIVITY (Percent Increase): 74 Percent Increase
Adenylate cyclase
  effect on adenylate cyclase activity: small inhibition
Guanylate cyclase [4]
  Ka: > 1000 nM
